From PMC7578299, “The antiviral effects of baloxavir marboxil against influenza A virus infection in ferrets” (Influenza and Other Respiratory Viruses, 2020)
Like-named read-outs stand apart in the source and are kept apart here.

Tests used:
[1] = test system: influenza A/Kadoma/3/2006 strain; details: A/Kadoma/3/2006, yield reduction assay, cited from earlier work
[2] = Simulated plasma concentration of BXA (non-parametric superposition, Phoenix WinNonlin); set-up: species or system ferret; details: for terminal elimination half-life extrapolated from mean plasma concentrations between 6 and 24 hours: four ferrets; for Ratio of BXA concentration to EC90: EC90 0.42 ng/mL; for Ratio of BXA concentration to Target concentration: target 6.85 ng/mL
From the text: Plasma concentrations of BXA after dosing of BXM twice daily were estimated using the non‐parametric superposition function in Phoenix WinNonlin software (https://onlinehelp.certara.com/phoenix/8.2/topics/nonparasuper.htm) based on the mean plasma concentrations of BXA following single‐dose administration of BXM. Dosing type was used as “Variable.” The computation method used for interpolation and extrapolation of untransformed data was selected as logarithm (Log).

[3] = set-up: method as in Koshimichi et al., J Pharm Sci 2019;108:1896–1904; details: Japanese patients, ref Koshimichi et al., J Pharm Sci 2019;108:1896–1904, cited from earlier work
[4] = two doses BXM 10 mg/kg, 24 hours after first dosing
[5] = two doses BXM 10 mg/kg, 48 hours after first dosing
[6] = two doses BXM 30 mg/kg, 24 hours after first dosing
[7] = two doses BXM 30 mg/kg, 48 hours after first dosing

For O=C1c2c(O)c(=O)ccn2N([C@@H]2c3ccccc3SCc3c2ccc(F)c3F)[C@@H]2COCCN12 [BXA, baloxavir acid], the “90% effective concentration (EC90)” value [1] is listed as 0.42 ng/mL, the EC90 ([1]; read-out: 90% effective concentration (EC90)) is listed as 880 pM and the “terminal elimination half-life extrapolated from mean plasma concentrations between 6 and 24 hours” value ([2]; BXM 10 mg/kg) is listed as 6.57 h. For the same molecule, the “terminal elimination half-life extrapolated from mean plasma concentrations between 6 and 24 hours” value ([2]; BXM 30 mg/kg) was 4.08 h, the Simulated plasma concentration ([2]; BXM single dose 10 mg/kg, 2.5 h) was 48.5 ng/mL and the Simulated plasma concentration ([2]; BXM single dose 10 mg/kg, 3 h) was 42.6 ng/mL. It also gave a Simulated plasma concentration ([2]; BXM single dose 10 mg/kg, 3.5 h) of 37.5 ng/mL, a Simulated plasma concentration ([2]; BXM single dose 10 mg/kg, 4 h) of 33.0 ng/mL and a Simulated plasma concentration ([2]; BXM single dose 10 mg/kg, 4.5 h) of 29.1 ng/mL. It also gave a Simulated plasma concentration ([2]; BXM single dose 10 mg/kg, 5 h) of 25.7 ng/mL, a Simulated plasma concentration ([2]; BXM single dose 10 mg/kg, 5.5 h) of 22.7 ng/mL and a Simulated plasma concentration ([2]; BXM single dose 10 mg/kg, 6 h) of 20.0 ng/mL. The Simulated plasma concentration ([2]; BXM single dose 10 mg/kg, 6.5 h) was 19.1 ng/mL, the Simulated plasma concentration ([2]; BXM single dose 10 mg/kg, 7 h) was 18.3 ng/mL and the Simulated plasma concentration ([2]; BXM single dose 10 mg/kg, 7.5 h) was 17.5 ng/mL. It also gave a Simulated plasma concentration ([2]; BXM single dose 10 mg/kg, 8 h) of 16.7 ng/mL, a Simulated plasma concentration ([2]; BXM single dose 10 mg/kg, 8.5 h) of 15.8 ng/mL and a Simulated plasma concentration ([2]; BXM single dose 10 mg/kg, 9 h) of 15.0 ng/mL. The Simulated plasma concentration ([2]; BXM single dose 10 mg/kg, 9.5 h) was 14.2 ng/mL, the Simulated plasma concentration ([2]; BXM single dose 10 mg/kg, 10 h) was 13.5 ng/mL and the Simulated plasma concentration ([2]; BXM single dose 10 mg/kg, 10.5 h) was 12.8 ng/mL. For the same molecule, the Simulated plasma concentration ([2]; BXM single dose 10 mg/kg, 11 h) was 12.1 ng/mL, the Simulated plasma concentration ([2]; BXM single dose 10 mg/kg, 11.5 h) was 11.5 ng/mL and the Simulated plasma concentration ([2]; BXM single dose 10 mg/kg, 12 h) was 10.9 ng/mL. For the same molecule, the Simulated plasma concentration ([2]; BXM single dose 10 mg/kg, 12.5 h) was 10.3 ng/mL, the Simulated plasma concentration ([2]; BXM single dose 10 mg/kg, 13 h) was 9.80 ng/mL and the Simulated plasma concentration ([2]; BXM single dose 10 mg/kg, 13.5 h) was 9.29 ng/mL. The Simulated plasma concentration ([2]; BXM single dose 10 mg/kg, 47.5 h) was 0.254 ng/mL, the Simulated plasma concentration ([2]; BXM single dose 10 mg/kg, 48 h) was 0.241 ng/mL and the Simulated plasma concentration ([2]; BXM single dose 30 mg/kg, 2.5 h) was 316 ng/mL. For the same molecule, the Simulated plasma concentration ([2]; BXM single dose 30 mg/kg, 3 h) was 292 ng/mL, the Simulated plasma concentration ([2]; BXM single dose 30 mg/kg, 3.5 h) was 269 ng/mL and the Simulated plasma concentration ([2]; BXM single dose 30 mg/kg, 4 h) was 248 ng/mL. The Simulated plasma concentration ([2]; BXM single dose 30 mg/kg, 4.5 h) was 235.6 ng/mL, the Simulated plasma concentration ([2]; BXM single dose 30 mg/kg, 5 h) was 223.8 ng/mL and the Simulated plasma concentration ([2]; BXM single dose 30 mg/kg, 5.5 h) was 212.6 ng/mL. It also gave a Simulated plasma concentration ([2]; BXM single dose 30 mg/kg, 6 h) of 202 ng/mL, a Simulated plasma concentration ([2]; BXM single dose 30 mg/kg, 6.5 h) of 190.3 ng/mL and a Simulated plasma concentration ([2]; BXM single dose 30 mg/kg, 7 h) of 179.2 ng/mL. For the same molecule, the Simulated plasma concentration ([2]; BXM single dose 30 mg/kg, 7.5 h) was 168.8 ng/mL, the Simulated plasma concentration ([2]; BXM single dose 30 mg/kg, 8 h) was 159 ng/mL and the Simulated plasma concentration ([2]; BXM single dose 30 mg/kg, 8.5 h) was 146 ng/mL. For the same molecule, the Simulated plasma concentration ([2]; BXM single dose 30 mg/kg, 9 h) was 134 ng/mL, the Simulated plasma concentration ([2]; BXM single dose 30 mg/kg, 9.5 h) was 123 ng/mL and the Simulated plasma concentration ([2]; BXM single dose 30 mg/kg, 10 h) was 112 ng/mL. For the same molecule, the Simulated plasma concentration ([2]; BXM single dose 30 mg/kg, 10.5 h) was 103 ng/mL, the Simulated plasma concentration ([2]; BXM single dose 30 mg/kg, 11 h) was 94.5 ng/mL and the Simulated plasma concentration ([2]; BXM single dose 30 mg/kg, 11.5 h) was 86.6 ng/mL. The Simulated plasma concentration ([2]; BXM single dose 30 mg/kg, 12 h) was 79.4 ng/mL, the Simulated plasma concentration ([2]; BXM single dose 30 mg/kg, 12.5 h) was 72.8 ng/mL and the Simulated plasma concentration ([2]; BXM single dose 30 mg/kg, 13 h) was 66.8 ng/mL. For the same molecule, the Simulated plasma concentration ([2]; BXM single dose 30 mg/kg, 13.5 h) was 61.2 ng/mL, the Simulated plasma concentration ([2]; BXM single dose 30 mg/kg, 47.5 h) was 0.184 ng/mL and the Simulated plasma concentration ([2]; BXM single dose 30 mg/kg, 48 h) was 0.169 ng/mL. It also gave a Simulated plasma concentration ([2]; BXM two doses 10 mg/kg (0 and 12 h), 2.5 h) of 48.5 ng/mL, a Simulated plasma concentration ([2]; BXM two doses 10 mg/kg (0 and 12 h), 3 h) of 42.6 ng/mL and a Simulated plasma concentration ([2]; BXM two doses 10 mg/kg (0 and 12 h), 3.5 h) of 37.5 ng/mL. It also gave a Simulated plasma concentration ([2]; BXM two doses 10 mg/kg (0 and 12 h), 4 h) of 33.0 ng/mL, a Simulated plasma concentration ([2]; BXM two doses 10 mg/kg (0 and 12 h), 4.5 h) of 29.1 ng/mL and a Simulated plasma concentration ([2]; BXM two doses 10 mg/kg (0 and 12 h), 5 h) of 25.7 ng/mL. The Simulated plasma concentration ([2]; BXM two doses 10 mg/kg (0 and 12 h), 5.5 h) was 22.7 ng/mL, the Simulated plasma concentration ([2]; BXM two doses 10 mg/kg (0 and 12 h), 6 h) was 20.0 ng/mL and the Simulated plasma concentration ([2]; BXM two doses 10 mg/kg (0 and 12 h), 6.5 h) was 19.1 ng/mL. The Simulated plasma concentration ([2]; BXM two doses 10 mg/kg (0 and 12 h), 7 h) was 18.3 ng/mL, the Simulated plasma concentration ([2]; BXM two doses 10 mg/kg (0 and 12 h), 7.5 h) was 17.5 ng/mL and the Simulated plasma concentration ([2]; BXM two doses 10 mg/kg (0 and 12 h), 8 h) was 16.7 ng/mL. It also gave a Simulated plasma concentration ([2]; BXM two doses 10 mg/kg (0 and 12 h), 8.5 h) of 15.8 ng/mL, a Simulated plasma concentration ([2]; BXM two doses 10 mg/kg (0 and 12 h), 9 h) of 15.0 ng/mL and a Simulated plasma concentration ([2]; BXM two doses 10 mg/kg (0 and 12 h), 9.5 h) of 14.2 ng/mL. For the same molecule, the Simulated plasma concentration ([2]; BXM two doses 10 mg/kg (0 and 12 h), 10 h) was 13.5 ng/mL, the Simulated plasma concentration ([2]; BXM two doses 10 mg/kg (0 and 12 h), 10.5 h) was 12.8 ng/mL and the Simulated plasma concentration ([2]; BXM two doses 10 mg/kg (0 and 12 h), 11 h) was 12.1 ng/mL. It also gave a Simulated plasma concentration ([2]; BXM two doses 10 mg/kg (0 and 12 h), 11.5 h) of 11.5 ng/mL, a Simulated plasma concentration ([2]; BXM two doses 10 mg/kg (0 and 12 h), 12 h (dosing)) of 10.9 ng/mL and a Simulated plasma concentration ([2]; BXM two doses 10 mg/kg (0 and 12 h), 12.5 h) of 43.5 ng/mL. It also gave a Simulated plasma concentration ([2]; BXM two doses 10 mg/kg (0 and 12 h), 13 h) of 65.9 ng/mL, a Simulated plasma concentration ([2]; BXM two doses 10 mg/kg (0 and 12 h), 13.5 h) of 64.9 ng/mL and a Simulated plasma concentration ([2]; BXM two doses 10 mg/kg (0 and 12 h), 24 h) of 13.9 ng/mL. The Simulated plasma concentration ([2]; BXM two doses 10 mg/kg (0 and 12 h), 47.5 h) was 1.16 ng/mL, the Simulated plasma concentration ([2]; BXM two doses 10 mg/kg (0 and 12 h), 48 h) was 1.10 ng/mL and the Simulated plasma concentration ([2]; BXM two doses 30 mg/kg (0 and 12 h), 2.5 h) was 316 ng/mL. For the same molecule, the Simulated plasma concentration ([2]; BXM two doses 30 mg/kg (0 and 12 h), 3 h) was 292 ng/mL, the Simulated plasma concentration ([2]; BXM two doses 30 mg/kg (0 and 12 h), 3.5 h) was 269 ng/mL and the Simulated plasma concentration ([2]; BXM two doses 30 mg/kg (0 and 12 h), 4 h) was 248 ng/mL. The Simulated plasma concentration ([2]; BXM two doses 30 mg/kg (0 and 12 h), 4.5 h) was 236 ng/mL, the Simulated plasma concentration ([2]; BXM two doses 30 mg/kg (0 and 12 h), 5 h) was 224 ng/mL and the Simulated plasma concentration ([2]; BXM two doses 30 mg/kg (0 and 12 h), 5.5 h) was 213 ng/mL. For the same molecule, the Simulated plasma concentration ([2]; BXM two doses 30 mg/kg (0 and 12 h), 6 h) was 202 ng/mL, the Simulated plasma concentration ([2]; BXM two doses 30 mg/kg (0 and 12 h), 6.5 h) was 190 ng/mL and the Simulated plasma concentration ([2]; BXM two doses 30 mg/kg (0 and 12 h), 7 h) was 179 ng/mL. For the same molecule, the Simulated plasma concentration ([2]; BXM two doses 30 mg/kg (0 and 12 h), 7.5 h) was 169 ng/mL, the Simulated plasma concentration ([2]; BXM two doses 30 mg/kg (0 and 12 h), 8 h) was 159 ng/mL and the Simulated plasma concentration ([2]; BXM two doses 30 mg/kg (0 and 12 h), 8.5 h) was 146 ng/mL. It also gave a Simulated plasma concentration ([2]; BXM two doses 30 mg/kg (0 and 12 h), 9 h) of 134 ng/mL, a Simulated plasma concentration ([2]; BXM two doses 30 mg/kg (0 and 12 h), 9.5 h) of 123 ng/mL and a Simulated plasma concentration ([2]; BXM two doses 30 mg/kg (0 and 12 h), 10 h) of 112 ng/mL. The Simulated plasma concentration ([2]; BXM two doses 30 mg/kg (0 and 12 h), 10.5 h) was 103 ng/mL, the Simulated plasma concentration ([2]; BXM two doses 30 mg/kg (0 and 12 h), 11 h) was 94.5 ng/mL and the Simulated plasma concentration ([2]; BXM two doses 30 mg/kg (0 and 12 h), 11.5 h) was 86.6 ng/mL. It also gave a Simulated plasma concentration ([2]; BXM two doses 30 mg/kg (0 and 12 h), 12 h (dosing)) of 79.4 ng/mL, a Simulated plasma concentration ([2]; BXM two doses 30 mg/kg (0 and 12 h), 12.5 h) of 208 ng/mL and a Simulated plasma concentration ([2]; BXM two doses 30 mg/kg (0 and 12 h), 13 h) of 405 ng/mL. The Simulated plasma concentration ([2]; BXM two doses 30 mg/kg (0 and 12 h), 47.5 h) was 1.60 ng/mL, the Simulated plasma concentration ([2]; BXM two doses 30 mg/kg (0 and 12 h), 48 h) was 1.47 ng/mL and the “Ratio of BXA concentration to EC90” value [2, 4] was “× 33.2”. For the same molecule, the “Ratio of BXA concentration to Target concentration” value (shortened to “Ratio … to Target concentration”) [2, 4] was “× 2.0”, the “Ratio of BXA concentration to EC90” value [2, 5] was “× 2.6” and the “Ratio … to Target concentration” value [2, 5] was “× 0.16”. The “Ratio of BXA concentration to EC90” value [2, 6] was “× 213”, the “Ratio … to Target concentration” value [2, 6] was “× 13.0” and the “Ratio of BXA concentration to EC90” value [2, 7] was “× 3.5”. For the same molecule, the “Ratio … to Target concentration” value [2, 7] was “× 0.21”, the “plasma concentration at 24 hours” value ([3]; BXM 10 mg) was 15.1 (range 6.38‐29.0) ng/mL and the “plasma concentration at 24 hours” value ([3]; BXM 40 mg) was 61.5 (range 27.9‐118) ng/mL.
